What was measured:
[1] = chemical spread: dot diameter growth rate of coatings containing nucleator (Example 2); conditions: for Dot Diameter Growth Rate: 10 to 60 seconds development
Source text: Coatings similar to those described in Example 1 were examined for differences in the degree of image spreading, so-called chemical spread, that is inherent to high contrast, nucleation processes. The films were exposed 5 seconds with 3000K tungsten light through a 90%, 52 line per centimeter, round dot tint mask to produce hard 10% dots upon development for about 10 seconds in the developer described in Example 1. With extended development beyond 10 seconds (typical development times in practice are 30 to 60 seconds), the nucleation process entails fogging of unexposed silver halide at the dot edges and, in turn, causes the dot to grow in size. The growth of the dot was measured by monitoring the change in density of the developing tint with time from 10 to 60 seconds and converting the measured density to the equivalent dot diameter using the well known relation between integrated halftone density and dot size.

[2] = photographic performance of coatings containing nucleator: relative speed, dot quality, contrast (Example 1); conditions: for photographic speed (in words): comparison of tests of Table I; for Relative Speed: incorporated booster 64.6 mg/m^2, 1 minute at 35° C., pH 10.5; for DQ (contact screen exposed halftone dot quality): rated on a scale, 5 is excellent
Method: Each coating used in obtaining the data provided in this example was prepared on a polyester support, using a monodispersed 0.24 μm AgBrI (2.5 mol % iodide) iridium-doped emulsion at 3.51 g/m^2 Ag, 2.54 g gel/m^2, and 1.08 g latex/m^2 where the latex is a copolymer of methyl acrylate, 2-acrylamido-2-methylpropane sulfonic acid, and 2-acetoacetoxyethylmethylacrylate. The silver halide emulsion was spectrally sensitized with 214 mg/Ag mol of anhydro-5,5'-dichloro-9-ethyl-3,3'-di-(3-sulfopropyl) oxacarbocyanine hydroxide, triethylene salt and the emulsion layer was overcoated with gelatin containing polymethylmethacrylate beads. The nucleating agent was added as a methanol solution to the emulsion melts at a level in millimoles (mM) per mole of silver as hereinafter indicated. An "incorporated booster" was added as a methanol solution in an amount of 64.6 milligrams per square meter of photographic element. The compound employed as the "incorporated booster" is represented by the formula: [drawing 8] where Pr represents n-propyl. Coatings were exposed for five seconds to a 3000° K. tungsten light source and processed for 1 minute at 35° C. in the developer solution.
To prepare the developer solution, a concentrate was prepared from the following ingredients:
The concentrate was diluted at a ratio of one part of concentrate to two parts of water to produce a working strength developing solution with a pH of 10.5.
*DQ = contact screen exposed halftone dot quality rated on a scale where
is poor and 5 is excellent.

SMILES | dot diameter growth rate or chemical spread (in words) ([1]; Test 4 (one quarter the concentration) compared with Control Test A^1) | Dot Diameter Growth Rate ([1]; nucleator 0.50 mM/Ag mole) [micrometers/sec] | Dot Diameter Growth Rate ([1]; nucleator 1.0 mM/Ag mole) [micrometers/sec] | screen-exposed halftone dot quality (in words) ([2]; Example 1) | photographic speed (in words) [2] | Relative Speed ([2]; nucleator 0.5 mM/Ag mole) | DQ (contact screen exposed halftone dot quality) ([2]; nucleator 0.5 mM/Ag mole) | Relative Speed ([2]; nucleator 0.75 mM/Ag mole) | DQ (contact screen exposed halftone dot quality) ([2]; nucleator 0.75 mM/Ag mole) | Dot Diameter Growth Rate ([1]; nucleator 2.0 mM/Ag mole) [micrometers/sec] | Relative Speed ([2]; nucleator 1.0 mM/Ag mole) | DQ (contact screen exposed halftone dot quality) ([2]; nucleator 1.0 mM/Ag mole) | Relative Speed ([2]; nucleator 2.0 mM/Ag mole) | DQ (contact screen exposed halftone dot quality) ([2]; nucleator 2.0 mM/Ag mole)
CCCCCCCCOCCOCCOCCOCCSCC(=O)Nc1c(C)ccc(S(=O)(=O)Nc2ccc(NNC=O)cc2)c1C [Compound I-6] | much less | 0.30 | 0.41 | significant improvement in the screen-exposed halftone dot quality | the same speed was achieved in Test 1 even though the molar concentration of nucleator was one quarter of that used in Control Test B | 100 | 4.5 | 107 | 4.5 |  |  |  |  | 
CC(C)c1ccc(C(C)C)c(S(=O)(=O)Nc2ccc(NNC=O)cc2)c1 [Control A] |  |  |  |  |  |  |  |  |  | 0.60 | 87 | 3.5 | 100 | 4
CCCCCCCCSCC(=O)Nc1c(C)ccc(S(=O)(=O)Nc2ccc(NNC=O)cc2)c1C [Control C] |  |  |  |  | significantly lowers the photographic speed relative to the non-thio control of Test A |  |  |  |  |  | 68 | 3.5 | 68 | 3.5
